14 molecules from patent publication US7939534B2, “Certain chemical entities, compositions, and methods” (Cytokinetics, Inc., priority 2006, dated 2011) can be followed below.

The target of the assay is T1, chicken gizzard smooth muscle myosin subfragment-1 chemically crosslinked to either cardiac or skeletal actin (Gallus gallus, UniProt P10587).
T1 construct: chicken gizzard smooth muscle myosin subfragment-1; from tissue; host or cells: chicken gizzard
Nature of the assay: Dose dependent smooth muscle myosin ATPase modulation (pyruvate kinase/horseradish peroxidase/pyruvate oxidase-coupled ATPase assay). In kind it is biochemical. The conditions noted are these: read-out: IC50 Arithmetic Mean. The procedure, abridged: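 Chicken gizzard smooth muscle myosin S1 crosslinked (EDC/NHS) to cardiac or skeletal actin, concentration titrated to a set ATPase rate. Pyruvate kinase/pyruvate oxidase/HRP-coupled assay, 0.15 mM ATP, 12 mM K-PIPES pH 7.00, 100 mM KCl, amplex red fluorescence; IC50 from 4-parameter fit.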

The term IC50 denotes the concentration that gives 50% inhibition. For the molecule `CNC(=O)C1CCN(c2ccc(C(=O)NCc3cccnc3)c(NCCc3cccc(F)c3)n2)CC1` [Compound 114, (2-{[2-(3-fluorophenyl)ethyl]amino}-6-[4-(N-methylcarbamoyl)piperidyl](3-pyridyl))-N-(3-pyridylmethyl)carboxamide], the IC50 was found to be 11 µM.

As to `O=C(NCc1cccnc1)c1ccc(N2CCC(O)CC2)nc1NCCc1cccc(F)c1` [Compound 115, (2-{[2-(3-fluorophenyl)ethyl]amino}-6-(4-hydroxypiperidyl)(3-pyridyl))-N-(3-pyridylmethyl)carboxamide], the IC50 turned out to be 0.756 µM.

Take `O=C(NCc1cccnc1)c1ccc(N2CCNCC2)nc1NCCc1cccc(F)c1` [Compound 116, (2-{[2-(3-fluorophenyl)ethyl]amino}-6-piperazinyl(3-pyridyl))-N-(3-pyridylmethyl)carboxamide]: the IC50 turned out to be 31.8 µM.

On to `CC(=O)NC1CCN(c2ccc(C(=O)NCc3cccnc3)c(NCCc3cccc(F)c3)n2)C1` (centres unmarked) [Compound 118, N-[1-(6-{[2-(3-fluorophenyl)ethyl]amino}-5-[N-(3-pyridylmethyl)carbamoyl]-2-pyridyl)pyrrolidin-3-yl]acetamide], for which the IC50 was found to be 20.7 µM.

Regarding `O=C(NCc1cccnc1)c1ccc(N2CCOC(CO)C2)nc1NCCc1cccc(F)c1` (centres unmarked) [Compound 119, (2-{[2-(3-fluorophenyl)ethyl]amino}-6-[2-(hydroxymethyl)morpholin-4-yl](3-pyridyl))-N-(3-pyridylmethyl)carboxamide], the IC50 is 7.21 µM.

As to `CN[C@H]1CCN(c2ccc(C(=O)NCc3cccnc3)c(NCCc3cccc(F)c3)n2)C1` [Compound 120, (6-[(3S)-3-(methylamino)pyrrolidinyl]-2-{[2-(3-fluorophenyl)ethyl]amino}(3-pyridyl))-N-(3-pyridylmethyl)carboxamide], the IC50 was 59.5 µM.

For `O=C(NCc1cccnc1)c1ccc(N2CCSCC2)nc1NCCc1cccc(F)c1` [Compound 121, (2-{[2-(3-fluorophenyl)ethyl]amino}-6-(1,4-thiazaperhydroin-4-yl)(3-pyridyl))-N-(3-pyridylmethyl)carboxamide], the IC50 amounted to 1.57 µM.

Turning to `O=C(NCc1cccnc1)c1ccc(N2CCS(=O)(=O)CC2)nc1NCCc1cccc(F)c1` [Compound 122, (6-(1,1-dioxo(1,4-thiazaperhydroin-4-yl))-2-{[2-(3-fluorophenyl)ethyl]amino}(3-pyridyl))-N-(3-pyridylmethyl)carboxamide], the IC50 is 29.9 µM.

Consider `CC(=O)N1CCN(c2ccc(C(=O)NCc3cccnc3)c(NCCc3cccc(F)c3)n2)CC1` [Compound 123, (6-(4-acetylpiperazinyl)-2-{[2-(3-fluorophenyl)ethyl]amino}(3-pyridyl))-N-(3-pyridylmethyl)carboxamide], for which the IC50 turned out to be 8.57 µM.

On to `O=C(NCc1cccnc1)c1ccc(N2CCC(N3CCCCC3)CC2)nc1NCCc1cccc(F)c1` [Compound 124, (2-{[2-(3-fluorophenyl)ethyl]amino}-6-(4-piperidylpiperidyl)(3-pyridyl))-N-(3-pyridylmethyl)carboxamide], for which the IC50 came out at 29.7 µM.

`CCOC(=O)N1CCN(c2ccc(C(=O)NCc3cccnc3)c(NCCc3cccc(F)c3)n2)CC1` [Compound 125, ethyl 4-(6-{[2-(3-fluorophenyl)ethyl]amino}-5-[N-(3-pyridylmethyl)carbamoyl]-2-pyridyl)piperazinecarboxylate]: the IC50 was 3.16 µM.

Consider “N-[((2R)-1-{4-[(tert-butoxy)carbonylamino]butanoyl}pyrrolidin-2-yl)methyl](5-fluoro-2-{[2-(3-fluorophenyl)ethyl]amino}-6-pyrrolidinyl(3-pyridyl))carboxamide [Compound 75]”, for which the IC50 was 8.55 µM.

As to “N-{[(2R)-1-(2-aminoacetyl)pyrrolidin-2-yl]methyl}(5-fluoro-2-{[2-(3-fluorophenyl)ethyl]amino}-6-pyrrolidinyl(3-pyridyl))carboxamide [Compound 76]”, the IC50 was determined as 0.212 µM.

In the case of “N-{[(2R)-1-(4-aminobutanoyl)pyrrolidin-2-yl]methyl}(5-fluoro-2-{[2-(3-fluorophenyl)ethyl]amino}-6-pyrrolidinyl(3-pyridyl))carboxamide [Compound 74]”, the IC50 came to 0.308 µM.
